According to patent publication US5935966A, “Pyrimidine carboxylates and related compounds and methods for treating inflammatory conditions” (Signal Pharmaceuticals, Inc., priority 1996, dated 1999):

tested on: delayed-type hypersensitivity response to oxazolone; assay: not given; conditions: Morris et al. 1990; cited from earlier work

In the case of `O=P1(N(CCCl)CCCl)NCCCO1` (stereo not shown) [cyclophosphamide], the “activity in delayed-type hypersensitivity (oxazolone) model” value is given as “active”.

tested on: popliteal lymph node (graft vs. host); assay: not given; conditions: Morris et al. 1990; cited from earlier work

In the case of `O=P1(N(CCCl)CCCl)NCCCO1` (stereo not shown) [cyclophosphamide], the “activity in popliteal lymph node (graft vs. host) model” value is listed as “active”.

tested on: NFκB and AP-1; assay: NFκB and AP-1 luciferase reporter assays in stable Jurkat T-cells (PMA/PHA stimulated); assay type: cell-based, human; conditions: Homo sapiens, average of NFκB and AP-1 assays, read-out: ICm (average of the measurements obtained from the NFκB and AP-1 assays)
From the text: Stable human Jurkat T-cells containing an NFκB binding site (from the MHC promoter) fused to a minimal SV-40 promoter driving luciferase expression were used in this experiment. Cells were split to 3×10^5 cells/mL every 2-3 days (cell concentration should not exceed 1×10^6 cells/mL to keep the cells proliferating in log phase). These cells were counted, resuspended in fresh medium containing 10% Serum-Plus at a density of 1×10^6 cells/mL and plated in 96 well round bottom plates (200 μ.LAMBDA. per well) 18 hours prior to starting the experiment.
Compounds of this invention, dissolved in dimethyl sulfoxide (3.3, 0.33 and 0.03 μg/mL), were then added to the 96 well plates containing the cells and the plates were incubated for 0.5 h at 37° C. Then 50 ng/mL of phorbol 12-myristate-13-acetate (PMA) and 1 μg/mL of phytohemagglutinin (PHA) were added to each well and the cells were incubated for an additional 5 h at 37° C. The plates were centrifuged at 2200 RPM for 3 minutes at room temperature and then the medium was removed. To each well was added 60 μL of cell lysis buffer and the plates were left at room temperature for 0.25 h. Then 40 μL of each cell extract was transferred to a black 96 well plate and 50 μL of luciferase substrate buffer was added. Luminescence was immediately measured using a Packard TopCount.
For AP-1, the assay was run as described above for NFκB except stable Jurkat T-cells were used that contained a collagenase promoter driving luciferase expression. In addition, the concentration of PMA used was 5 ng/mL.
The IC50 values reported in Table 3 are the average of the measurements obtained from the NFκB and AP-1 assays described above.

First: CCOC(=O)c1cnc(N(C)N2C(=O)C=C(C)C2=O)nc1C1CC1 [Example 109, ETHYL 2-[N-(1'-AMINOCITRACONAMIDO-N-METHYL)]-4-CYCLOPROPYLPYRIMIDINE-5-CARBOXYLATE]
Second: CCOC(=O)c1cnc(-c2cccs2)nc1N(C)N1C(=O)C=C(C)C1=O [Example 123, ETHYL 4-[N-(1'-AMINOCITRACONAMIDO)-N-METHYL]-2-(2'-THIENYL)-PYRIMIDINE-5-CARBOXYLATE]
The IC50 of the first is 4-fold lower: 200 nM for the first, 800 nM for the second. The first is the more potent here.

Compared with `CCc1nc(N(C)N2C(=O)C=C(C)C2=O)ncc1CO` [Example 111, 2-[N-(1'-AMINOCITRACONAMIDO)-N-METHYL]-4-ETHYL-5-(HYDROXYMETHYL)PYRIMIDINE], `CCc1nc(N(C)N2C(=O)C=C(C)C2=O)ncc1COC` [Example 112, 2-[N-(1'-AMINOCITRACONAMIDO)-N-METHYL]-4-ETHYL-5-(METHOXYMETHYL)PYRIMIDINE] is 8.2-fold lower in IC50: 4900 nM for the first, 600 nM for the second. The second is the more potent here.

`COCc1cnc(NN2C(=O)C=C(C)C2=O)nc1C(F)(F)F` [Example 113, 2-[N-(1'-AMINOCITRACONAMIDO)]-5-(METHOXYMETHYL)-4-TRIFLUOROMETHYLPYRIMIDINE] and `CCOC(=O)OCc1cnc(NN2C(=O)C=C(C)C2=O)nc1C(F)(F)F` [Example 114, 2-[N-(1'-AMINOCITRACONAMIDO)]-5-(ETHOXYMETHYLCARBONATE)-4-TRIFLUOROMETHYLPYRIMIDINE] are within 1.5-fold of each other in IC50: 1000 nM for the first, 1100 nM for the second.

Going from `CCOC(=O)c1cnc(-c2ccccc2)nc1NN1C(=O)C=C(C)C1=O` [Example 115] to `CCOC(=O)c1cnc(Cc2ccccc2)nc1NN1C(=O)C=C(C)C1=O` [Example 119, ETHYL 4-[N-(1'-AMINOCITRACONAMIDO)]-2-BENZYLPYRIMIDINE-5-CARBOXYLATE], the IC50 rises from 30 nM to 7000 nM (230-fold). The first is the more potent here.

Going from `CCOC(=O)c1cnc(-c2ccccc2)nc1N(C)N1C(=O)C=C(C)C1=O` [Example 116, ETHYL-4-[N-(1'-AMINOCITRACONAMIDO)-N-METHYL]-2-PHENYLPYRIMIDINE-5-CARBOXYLATE] to `CCOC(=O)c1cnc(-c2ccccc2)nc1N(C(C)=O)N1C(=O)C=C(C)C1=O` [Example 117, ETHYL 4-[N-ACETYL-N-(1'-AMINOCITRACONAMIDO)]-2-PHENYLPYRIMIDINE-5-CARBOXYLATE], the IC50 rises from 1400 nM to 4000 nM (2.9-fold). The first is the more potent here.

Going from `CCOC(=O)c1cnc(C)nc1NN1C(=O)C=C(C)C1=O` [Example 118, ETHYL 4-[N-(1'-AMINOCITRACONAMIDO)]-2-METHYLPYRIMIDINE-5-CARBOXYLATE] to `CCOC(=O)c1cnc(-c2cccs2)nc1NN1C(=O)C=C(C)C1=O` [Example 122, ETHYL 4-[N-(1'-AMINOCITRACONAMIDO)]-2-(2'-THIENYL)-PYRIMIDINE-5-CARBOXYLATE], the IC50 falls from 17000 nM to 20 nM (850-fold). The second is the more potent here.

Compared with `CCOC(=O)c1cnc(-c2cccc([N+](=O)[O-])c2)nc1NN1C(=O)C=C(C)C1=O` [Example 120, ETHYL 4-[N-(1'-AMINOCITRACONAMIDO)]-2-(3'-NITROPHENYL)-PYRIMIDINE-5-CARBOXYLATE], `CCOC(=O)c1cnc(-c2ccc(C(F)(F)F)cc2)nc1NN1C(=O)C=C(C)C1=O` [Example 121, ETHYL 4-[N-(1'-AMINOCITRACONAMIDO)]-2-(4'-TRIFLUOROMETHYLPHENYL)PYRIMIDINE-5-CARBOXYLATE] is 20-fold lower in IC50: 8000 nM for the first, 400 nM for the second. The second is the more potent here.

First: CCOC(=O)c1cnc(Cc2ccc(Cl)c(Cl)c2)nc1NN1C(=O)C=C(C)C1=O [Example 124, ETHYL 4-[N-(1'-AMINOCITRACONAMIDO)]-2-(3',4'-DICHLOROBENZYL)-PYRIMIDINE-5-CARBOXYLATE]
Second: CC1=CC(=O)N(Nc2nc(-c3cccs3)ncc2-c2cc(C)no2)C1=O [Example 132, 4-[N-(1'-AMINOCITRACONAMIDO)]-5-(3"-METHYLISOXAZOL-5'-YL)-2-(2'"-THIENYL)PYRIMIDINE]
The IC50 of the first is 21-fold higher: 4000 nM for the first, 190 nM for the second. The second is the more potent here.

`CCc1nc(N(C)N2C(=O)C=C(C)C2=O)ncc1-c1nc(C)co1` [Example 126, 2-[N-(1'-AMINOCITRACONAMIDO)-N-METHYL]-4-ETHYL-5-[2"-(4"-METHYL)OXAZOLYL]PYRIMIDINE] and `CCc1nc(N(C)N2C(=O)C=C(C)C2=O)ncc1-c1noc(C)n1` [Example 129, 2-[N-(1'-AMINOCITRACONAMIDO)-N-METHYL]-4-ETHYL-5-[5"-METHYL-1",2",4"-OXADIAZOLYL]PYRIMIDINE] are within 1.5-fold of each other in IC50: 1000 nM for the first, 1420 nM for the second.

First: CC1=CC(=O)N(N(C)c2ncc(-c3nc(C)co3)c(-c3cccs3)n2)C1=O [Example 127, 2-[N-(1'-AMINOCITRACONAMIDO)-N-METHYL]-5-[2"-(4"-METHYL)OXAZOLYL]-4-(2'"-THIENYL)PYRIMIDINE]
Second: CC1=CC(=O)N(Nc2nc(-c3cccs3)ncc2-c2nc(C)co2)C1=O [Example 137, 4-[N-(1'-AMINOCITRACONAMIDO)]-5-(4"-METHYLOXAZOL-2-YL)-2-(2'"-THIENYL)PYRIMIDINE]
The IC50 of the first is 2.4-fold higher: 750 nM for the first, 310 nM for the second.

`CC1=CC(=O)N(Nc2nc(-c3cccs3)ncc2C2=NCCO2)C1=O` [Example 140, 4-[N-(1'-AMINOCIACONAMIDO)]-5-(4",5"-DIHYDRO-2"-OXAZOLYL)-2-(2'"-THIENYL)PYRIMIDINE] and `CC1=CC(=O)N(Nc2nc(-c3cccs3)ncc2-c2nnc(C)o2)C1=O` [Example 142, 4-[N-(1'-AMINOCITRACONAMIDO)]-5-(5"-METHYL-1",3",4"-OXADIAZOL-2"-YL)-2-(2'"-THIENYL)PYRIMIDINE] are within 1.5-fold of each other in IC50: 200 nM for the first, 250 nM for the second.

For `CC1=CC(=O)N(Nc2nc(-c3cccs3)ncc2C#N)C1=O` [Example 143, 4-[N-(1'-AMINOCITRACONAMIDO)]-5-CYANO-2-(2'-THIENYL)PYRIMIDINE], the IC50 was 5150 nM.
